Source: ChEMBL document CHEMBL4382254, “Design, synthesis, structure-activity relationships and mechanism of action of new quinoline derivatives as potential antitumor agents” (Eur J Med Chem, 2019)
The source made the active and inactive calls. The calls are words filed in the database; no cut-off is given here.

What was measured:
HCT-116 [1] = assay: Induction of apoptosis in P53-deficient human HCT116 cells assessed as early apoptotic cells at 5 uM after 24 hrs by Annexin V-FITC/propidium iodide staining based flow cytometry (reference value: 5.96%); assay type: functional
HCT-116 [2] = assay: Induction of apoptosis in Bax-deficient human HCT116 cells assessed as viable cells at 5 uM after 24 hrs by Annexin V-FITC/propidium iodide staining based flow cytometry (reference value: 70.58%); assay type: functional; conditions: HCT-116, 24 h, read-out: Activity
DLD-1 [3] = assay: Induction of morphological changes in human DLD1 cells assessed as cell shrinkage at 5 to 10 uM after 24 hrs by phase contrast microscopic analysis; assay type: functional, cell-based
BGC-823 = assay: Cytotoxicity against human BGC823 cells after 48 hrs by MTT assay; assay type: functional, cell-based; conditions: BGC-823, 48 h
HepG2 = assay: Cytotoxicity against human HepG2 cells after 48 hrs by MTT assay; assay type: functional, cell-based; conditions: HepG2, 48 h
HCT-116 [4] = assay: Induction of apoptosis in human HCT116 cells assessed as late apoptotic cells at 2.5 uM after 24 hrs by Annexin V-FITC/propidium iodide staining based flow cytometry (reference value: 6.08%); assay type: functional
HCT-116 [5] = assay: Induction of morphological changes in human HCT116 cells assessed as cell shrinkage at 5 to 10 uM after 24 hrs by phase contrast microscopic analysis; assay type: functional, cell-based
HCT-116 [6] = assay: Cell cycle arrest in human HCT116 cells assessed as accumulation at G0/G1 phase at 5 uM after 24 hrs by propidium iodide staining based flow cytometry (reference value: 77.78%); assay type: functional
HCT-116 [7] = assay: Induction of apoptosis in P53-deficient human HCT116 cells assessed as increase in p21 expression at 2.5 to 20 uM after 24 hrs by immunoblot analysis; assay type: functional, cell-based
HCT-116 [8] = assay: Inhibition of colony formation in Bax-deficient human HCT116 cells after 24 hrs by crystal violet staining based assay; assay type: functional, cell-based
HCT-116 [9] = assay: Induction of apoptosis in human HCT116 cells assessed as decrease in pro-caspase3 level at 2.5 to 10 uM after 24 hrs by immunoblot analysis; assay type: functional, cell-based
HCT-116 [10] = assay: Induction of apoptosis in human HCT116 cells assessed as viable cells at 2.5 to 5 uM after 24 hrs in presence of pan-caspase inhibitor z-VAD-FMK by Annexin V-FITC/propidium iodide staining based flow cytometry (reference value: 88.08%); assay type: functional
HCT-116 [11] = assay: Induction of apoptosis in human HCT116 cells assessed as change in P53 expression at 2.5 to 20 uM after 24 hrs by immunoblot analysis; assay type: functional, cell-based
HCT-116 [12] = assay: Induction of apoptosis in human HCT116 cells assessed as increase in late apoptotic cells after 24 hrs by Annexin V-FITC/propidium iodide staining based flow cytometry; assay type: functional, cell-based
FHC = assay: Cytotoxicity against human FHC cells assessed as reduction in cell viability at 10 to 20 uM incubated for 24 hrs by CCK8 assay; assay type: cell-based
HCT-116 [13] = assay: Anticancer activity against human HCT116 cells xenografted in […] mouse assessed as tumor growth inhibition at 80 mg/kg administered once every 3 days for 21 days; assay type: functional, organism-based
RKO [14] = assay: Cytotoxicity against human RKO cells assessed as reduction in cell viability at 5 uM incubated for 24 hrs followed by compound washout by CCK8 assay; assay type: functional, cell-based; conditions: TDE = time-dependent effect
DLD-1 [15] = assay: Induction of morphological changes in human DLD1 cells assessed as reduction in cell number at 5 to 10 uM after 24 hrs by phase contrast microscopic analysis; assay type: functional, cell-based
HCT-116 [16] = assay: Anticancer activity against human HCT116 cells xenografted in […] mouse assessed as reduction in tumor weight at 80 mg/kg administered once every 3 days for 21 days; assay type: functional, organism-based
RKO [17] = assay: Induction of morphological changes in human RKO cells assessed as cell shrinkage at 5 to 10 uM after 24 hrs by phase contrast microscopic analysis; assay type: functional, cell-based
HCT-116 [18] = assay: Induction of apoptosis in P53-deficient human HCT116 cells assessed as increase in PUMA expression at 2.5 to 20 uM after 24 hrs by immunoblot analysis; assay type: functional, cell-based
DLD-1 [19] = assay: Cytotoxicity against human DLD1 cells after 48 hrs by MTT assay; assay type: functional, cell-based; conditions: DLD-1, 48 h
HCT-116 [20] = assay: Induction of apoptosis in Bax-deficient human HCT116 cells assessed as necrotic cells at 5 uM after 24 hrs by Annexin V-FITC/propidium iodide staining based flow cytometry (reference value: 6.74%); assay type: functional
HCT-116 [21] = assay: Induction of apoptosis in human HCT116 cells assessed as increase in early apoptotic cells after 24 hrs by Annexin V-FITC/propidium iodide staining based flow cytometry; assay type: functional, cell-based
HCT-116 [22] = assay: Induction of apoptosis in human HCT116 cells assessed as necrotic cells at 2.5 to 5 uM after 24 hrs in presence of pan-caspase inhibitor z-VAD-FMK by Annexin V-FITC/propidium iodide staining based flow cytometry (reference value: 1.83%); assay type: functional
HCT-116 [23] = assay: Induction of morphological changes in human HCT116 cells assessed as reduction in cell number at 5 to 10 uM after 24 hrs by phase contrast microscopic analysis; assay type: functional, cell-based
HCT-116 [24] = assay: Induction of apoptosis in human HCT116 cells assessed as viable cells at 2.5 uM after 24 hrs by Annexin V-FITC/propidium iodide staining based flow cytometry (reference value: 87.19%); assay type: functional; conditions: HCT-116, 24 h, read-out: Activity
HCT-116 [25] = assay: Induction of apoptosis in P53-deficient human HCT116 cells assessed as late apoptotic cells at 5 uM after 24 hrs by Annexin V-FITC/propidium iodide staining based flow cytometry (reference value: 34.09%); assay type: functional
DLD-1 [26] = assay: Inhibition of colony formation in human DLD1 cells after 24 hrs by crystal violet staining based assay; assay type: functional, cell-based
HCT-116 [27] = assay: Induction of apoptosis in human HCT116 cells assessed as early apoptotic cells at 5 uM after 24 hrs by Annexin V-FITC/propidium iodide staining based flow cytometry (reference value: 3.32 to 5.5%); assay type: functional
HCT-116 [28] = assay: Induction of intracellular reactive oxygen species generation in human HCT116 cells at 5 to 10 uM after 24 hrs by DCFH-DA staining based flow cytometry; assay type: functional, cell-based
HCT-116 [29] = assay: Cell cycle arrest in human HCT116 cells assessed as accumulation at G2/M phase at 5 uM after 48 hrs by propidium iodide staining based flow cytometry (reference value: 11.24%); assay type: functional
HCT-116 [30] = assay: Cytotoxicity against human HCT116 cells after 48 hrs by MTT assay; assay type: functional, cell-based; conditions: HCT-116, 48 h
HCT-116 [31] = assay: Induction of apoptosis in human HCT116 cells assessed as increase in cleaved PARP level after 24 hrs in presence of pan-caspase inhibitor z-VAD-FMK by immunoblot analysis; assay type: functional, cell-based
[32] = molecular target: Cellular tumor antigen p53 (Homo sapiens) (UniProt P04637); assay: Activation of P53 in human HCT116 cells assessed as increase in PUMA expression at 2.5 to 20 uM after 24 hrs by immunoblot analysis; assay type: cell-based
Chain of Cellular tumor antigen p53 (Homo sapiens) (P04637 whole entry, looked up): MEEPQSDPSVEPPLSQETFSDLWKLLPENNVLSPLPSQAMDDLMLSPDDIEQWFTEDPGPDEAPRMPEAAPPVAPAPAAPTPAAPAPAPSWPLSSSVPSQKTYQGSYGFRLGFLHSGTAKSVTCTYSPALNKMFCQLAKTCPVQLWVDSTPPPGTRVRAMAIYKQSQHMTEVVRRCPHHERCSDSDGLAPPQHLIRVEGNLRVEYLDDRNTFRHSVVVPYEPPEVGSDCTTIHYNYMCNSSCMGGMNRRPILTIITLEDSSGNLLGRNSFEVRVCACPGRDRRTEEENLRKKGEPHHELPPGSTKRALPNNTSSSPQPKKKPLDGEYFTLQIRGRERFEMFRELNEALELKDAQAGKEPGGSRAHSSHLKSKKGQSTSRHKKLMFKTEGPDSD

HCT-116 [33] = assay: Inhibition of colony formation in P53-deficient human HCT116 cells after 24 hrs by crystal violet staining based assay; assay type: functional, cell-based
HCT-116 [34] = assay: Induction of apoptosis in P53-deficient human HCT116 cells assessed as decrease in PARP expression at 2.5 to 20 uM after 24 hrs by immunoblot analysis; assay type: functional, cell-based
[35] = molecular target: Cellular tumor antigen p53 (Homo sapiens) (UniProt P04637); assay: Activation of P53 in human HCT116 cells assessed as decrease in PARP expression at 2.5 to 20 uM after 24 hrs by immunoblot analysis; assay type: cell-based

**Q.** How did the Activity (HCT-116 [1]) turn out when `CN(C)CCNc1ccnc2cc(OCc3ccc(F)cc3)ccc12` was run?
**A.** 5.29%

**Q.** And the viability at 5 µM (HCT-116 [2])?
**A.** 77.3%

**Q.** And the Activity (DLD-1 [3])?
**A.** Active

**Q.** What about the IC50 (BGC-823) of the same compound?
**A.** 890 nM

**Q.** What about the IC50 (HepG2) of the same compound?
**A.** 790 nM

**Q.** And the Activity (HCT-116 [4])?
**A.** 10.32%

**Q.** And the Activity (HCT-116 [5])?
**A.** Active

**Q.** What about the Activity (HCT-116 [6]) of the same compound?
**A.** 82.21%

**Q.** And the Activity (HCT-116 [7])?
**A.** inactive

**Q.** And the inhibition (HCT-116 [8])?
**A.** inactive

**Q.** And the Activity (HCT-116 [9])?
**A.** Active

**Q.** And the Activity (HCT-116 [10])?
**A.** 84.15%

**Q.** What about the Activity (HCT-116 [11]) of the same compound?
**A.** inactive

**Q.** And the Activity (HCT-116 [12])?
**A.** Dose-dependent effect

**Q.** And the Activity (FHC)?
**A.** Toxic

**Q.** What about the TGI (HCT-116 [13]) of the same compound?
**A.** Active

**Q.** And the Activity (RKO [14])?
**A.** Tde

**Q.** What about the Activity (DLD-1 [15]) of the same compound?
**A.** Active

**Q.** What about the Activity (HCT-116 [16]) of the same compound?
**A.** Active

**Q.** And the Activity (RKO [17])?
**A.** Active

**Q.** And the Activity (HCT-116 [18])?
**A.** inactive

**Q.** And the IC50 (DLD-1 [19])?
**A.** 810 nM

**Q.** What about the Activity (HCT-116 [20]) of the same compound?
**A.** 1.24%

**Q.** And the Activity (HCT-116 [21])?
**A.** Dose-dependent effect

**Q.** What about the Activity (HCT-116 [22]) of the same compound?
**A.** 2.65%

**Q.** And the Activity (HCT-116 [23])?
**A.** Active

**Q.** And the viability at 2.5 µM (HCT-116 [24])?
**A.** 78.1%

**Q.** What about the Activity (HCT-116 [25]) of the same compound?
**A.** 14.05%

**Q.** And the inhibition (DLD-1 [26])?
**A.** Dose-dependent effect

**Q.** And the Activity (HCT-116 [27])?
**A.** 6.13 - 19.42%

**Q.** What about the Activity (HCT-116 [28]) of the same compound?
**A.** inactive

**Q.** And the Activity (HCT-116 [29])?
**A.** 8.88%

**Q.** And the IC50 (HCT-116 [30])?
**A.** 370 nM

**Q.** And the Activity (HCT-116 [31])?
**A.** inactive

**Q.** And the Activity [32]?
**A.** Active

**Q.** What about the inhibition (HCT-116 [33]) of the same compound?
**A.** inactive

**Q.** What about the Activity (HCT-116 [34]) of the same compound?
**A.** inactive

**Q.** And the Activity [35]?
**A.** Active
